Series [1] deals with Mycobacterium avium complex (MAC). Nature of the series: Assay 2: STC colorimetric microplate assay, comparison over the Mycobacteria studied. Particulars: all four strains of M. avium and M. intracellulare. It counts as cell-based.
In series [2] the test system is epithelial cells in vitro ALI culture. Particulars: cited from earlier work.
A short description of series [3]: Solubility in 10 mM phosphate buffer (pH 7.4). It counts as physicochemical. The note with it: pH 7.4, aqueous buffer, kinetic from dmso stock, 60 minutes at room temperature, filtered, read-out: MTS Solubility in Buffer (pH 7.4). As to the method: Solubility in 10 mM Phosphate Buffer (pH 7.4)
The solubility sample testing of the compounds was performed by in phosphate buffer at pH 7.4 and using HPLC-MS detection. A stock solution of […] in DMSO was prepared for each compound. For the solubility test sample, 100 μL of the stock solution was diluted with 3.9 mL of a 10 mM phosphate buffer at […] to a final concentration of […]. The buffer solution was left to stand for 60 minutes at room temperature and then filtered. The filtrate was analyzed against two calibration points of the same analyte prepared at […] using HPLC-MS. These calibration points were prepared from the same stock solution as the solubility sample by diluting it with DMSO:H2O (1:1) 1:40 and then again 1:10. The chromatographic signal area of the analyte in the solubility sample was then compared to the chromatographic signal area of the two calibration samples.
(§1) The chromatographic separation was performed on a Waters HPLC-MS system using a 50×2.1 mm×Bridge C18 column and a gradient elution of Water with 0.1% formic acid and acetonitrile with 0.1% formic acid. The analytes were analyzed in positive electro-spray mode using the (M+H)^+ in single ion recording.

Series [4] can be described thus: Stability in human plasma. It counts as in vitro ADME. Particulars: room temperature. As to the method:
Stability in Mouse and Human Plasma
The stability of the compounds in mouse and human plasma was performed using protein precipitation as sample clean-up and HPLC-MS detection. The plasma stability studies of the compounds was performed at room temperature for up to 4 hours. A stock solution of […] in DMSO was prepared for each compound. For the plasma stability samples, 100 μL of the stock solution was diluted with 3.9 mL of either mouse or human plasma to a final concentration of […]. The plasma was left to equilibrate for 10 minutes at room temperature before the first analysis. For each analyzed time point ([…]) a 100 μL aliquot of the plasma was removed and protein precipitation (PPT) was performed on the aliquot by adding 900 μL of (ACN:DMSO) 95:5. The precipitated sample was shaken for 60 seconds and then centrifuged. The supernatant was transferred to an HPLC vial and analyzed using HPLC-MS. The chromatographic signal area of the samples at the different time points were then compared against each other, by setting the initial analysis at t=0 min as 100% and then calculating the %-value for each subsequent time point.
as §1

Series [5] concerns barrier integrity in the lungs of mice under sulphur dioxide insult. Put plainly: Barrier integrity enhancement in the lung: HSA leakage into BAL after sulphur dioxide insult. It counts as in vivo. As to the method: The effect of compounds of the invention on maintenance of barrier integrity in the lungs of mice under sulphur dioxide insult was investigated.
1. 15 female mice were randomised into 3 groups of 5 mice. The three groups were: • a) Control group • b) Azithromycin treatment group • c) Investigational compound treatment group
2. The mice were pre-treated for three days with: • a) Placebo (Phosphate buffered saline—PBS) given at a dose of 10 mg/kg in an intravenous injection of 100 μl three times per week. • b) Azithromycin: given at a dose of 10 mg/kg in an intravenous injection of 100 μl three times per week. • c) The compound of Example 2: given at a dose of 10 mg/kg in an intravenous injection of 100 μl three times per week.
3. One mouse in each group was set to one side as a control. Four mice were then exposed to sulphur dioxide gas at a concentration of 200 ppm in air for a period of 60 minutes. The mice were in a cage that was inserted into a 45 L treatment box with a removable lid, a gas feed line and a gas exhaust vent. […] The gas was premixed from bottled air and bottled 200 ppm SO2 in a first box and then fed into the treatment box. The level of SO2 being fed into the treatment box can be varied by adjusting the relative flow of air and SO2 from the two source cylinders. As the sulphur dioxide concentration in this experiment was 200 ppm, it was used neat, with no additional air being mixed with it. The mice had access to food and water for the duration of the treatment.
4. 24 hours after the end of the treatment, 1 mg of human serum albumin (HSA) in 100 μl saline was injected into the tail vein of each mouse, and fluorescent dextrans (FDs) were injected into the airways. The mice were then kept sedated for 90 minutes.
5. After 90 minutes, the mice were sacrificed via exsanguination. Plasma and bronchoalveolar lavage (BAL) were collected and the lungs were processed for paraffin embedding.
6. The level of HSA in the BAL was quantified by ELISA. The ELISA test used was the one commercially available from abcam (Human Serum Albumin kit ab179887). In line with the kit manufacturer's instructions, absorbance at […] was measured. Fluorescent dextrans are quantified using a fluorescent plate reader.
The level of HSA that leaks into the lungs, as found in the BAL, is a measure of the integrity of the lung epithelial barrier.
In the placebo group, there were experimental difficulties with two of the four mice; in the Azithromycin group, there were experimental difficulties with one of the four mice; and in the investigational compound group, there were experimental difficulties with two of the four mice. Therefore, results were obtained from two mice in each of the placebo and investigational compound groups, and from three mice in the Azithromycin group.

Consider four molecules from patent US11236120B2, “Azithromycin derivatives with epithelial barrier enhancement properties” (EpiEndo Pharmaceuticals ehf, priority 2015, dated 2022).

In brackets after ≈: the same amount, converted by molar mass. Entries after “also recorded” stand apart in the source; their conditions may differ.

Take `CC[C@H]1OC(=O)[C@H](C)[C@@H](O[C@H]2C[C@@](C)(OC)[C@@H](O)[C@H](C)O2)[C@H](C)[C@@H](O[C@@H]2O[C@H](C)C[C@H](N(C)C)[C@H]2O)[C@](C)(OC)C[C@@H](C)C(=O)[C@H](C)[C@@H](O)[C@]1(C)O` [Clarithromycin]: the “sensitivity of the MAC strains used” value in series [1] is on record as “sensitive”.

Consider `CC[C@H]1OC(=O)[C@H](C)[C@@H](O[C@H]2C[C@@](C)(OC)[C@@H](O)[C@H](C)O2)[C@H](C)[C@@H](O[C@@H]2O[C@H](C)C[C@H](N(C)C)[C@H]2O)[C@](C)(O)C[C@@H](C)C(=O)[C@H](C)[C@@H](O)[C@]1(C)O` [Erythromycin], for which the “effect on transepithelial resistance (TER) and cellular processing of tight junctions” value in series [2] is recorded as “not to exhibit similar effects”.

As a reminder, the solubility is how much of the substance goes into solution per volume. With `CC[C@H]1OC(=O)[C@H](C)[C@@H](O)[C@H](C)[C@@H](O[C@@H]2O[C@H](C)C[C@H](N(C)C)[C@H]2OC(=O)c2ccccc2)[C@](C)(O)C[C@@H](C)CN(C)[C@H](C)[C@@H](O)[C@]1(C)O` [Example 2], in series [3], the solubility at 60 min amounted to 3.62 µM (≈ 2.52 µg/mL). Further, in series [4], the “Degradation in Human Plasma at RT” value is listed as “Stable”. In series [5] (HSA in BAL by ELISA, mice, 10 mg/kg intravenous, 200 ppm SO2 for 60 minutes), the “HSA level - absorbance at 600 nm” value stood at 0.373 ± 0.037. Also, the “leakage of HSA into the lung following SO2 insult” value in series [5] (compared with control, FIG. 1) is “reduced compared with the control; also recorded: reduced compared with a control”. Further, the “HSA level - absorbance at 600 nm relative to control” value in series [5] (relative to PBS control, mice, 10 mg/kg intravenous, 200 ppm SO2 for 60 minutes) came out at 0.640 ± 0.058.

penicillin: in series [2], the “effect on transepithelial resistance (TER) and cellular processing of tight junctions” value is recorded as “not to exhibit similar effects”.
